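Assay format: 96-well plates, 48-hour exposure. TGI: total growth inhibition.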

The test system of the first assay is LOX IMVI melanoma. The assay is described as follows: growth of human tumour cells (NCI), 48 h.
`CSc1nc(C#N)c(/N=C\N(C)C)n1C` showed a TGI of more than 100 µM.
The same measure, in the same setting: under `CN(C)CCCSc1nc2ccccc2[nH]1` stands more than 100 µM.
The same measure, in the same setting: next, `O=C(CSc1nnc(-c2ccc(N=Cc3ccc(Cl)cc3)cc2)o1)Nc1ccccc1[N+](=O)[O-]`: more than 100 µM.

The subject of a further assay is LXFL 529 NSCLC. The assay can be described thus: growth of human tumour cells (NCI), 48 h.
`O=c1[nH]c2cc([N+](=O)[O-])ccc2nc1/C(=N/Nc1ccccc1)C(O)c1ccccc1Cl` (centres undefined): the TGI is more than 100 µM.
On the same count and under the same terms, under `C=Cc1ccc(C)[n+](C[Si](C)(C)O[Si](C)(C)C)c1` stands more than 100 µM.
Still for that read-out and setting: under `C[C@]12CCC(=O)C=C1CC[C@@H]1[C@@H]2CC[C@]2(C)C(=O)NC(=O)C[C@@H]12` stands more than 100 µM; under `COc1cc2c(oc(=O)c3c4oc([Si](C)(C)C)cc4cc(OC)c23)c2cccc(OCc3ccccc3)c12`, more than 61.8 µM.
For the compound `O=C(c1cccs1)N(C(=S)N1CCN(c2ccccn2)CC1)c1ccccc1`, the TGI was more than 100 µM.
Still for that read-out and setting: next, `CNS(=O)(=O)NN(C)S(=O)(=O)c1ccccc1`: more than 100 µM.
The same measure, in the same setting: next, `CCCCNc1nc(C#N)c(N)s1`: more than 100 µM; `Cn1cc2ccccc2c1-c1nc(F)nc(F)n1`: more than 100 µM.
As for `COC(=O)N/N=C(\Cc1ccccc1)CN(C)C`, the TGI was more than 100 µM.
The same measure, in the same setting: next, `CC1=NN(C(=O)c2ccccc2O)C(=O)/C1=C/c1ccco1`: more than 100 µM; `COc1ccc2c3c1O[C@]1(C)C34CCN(C)C(C2)C42C=C[C@@]1(OC)c1c(O)ccc(O)c12`: more than 100 µM.
The same measure, in the same setting: under `C[N+](C)(C)CC(=O)N/N=C/c1oc(-c2c(O)ccc3ccccc23)c(-c2c(O)ccc3ccccc23)c1[N+](=O)[O-]` stands more than 100 µM; under `COc1ccc(Nc2nnc(-c3nsc4ccccc34)s2)cc1`, more than 100 µM.
Same read-out and setting: under `C/C(CC(=O)Nc1ccc([N+](=O)[O-])cc1)=N\NC(N)=O` stands more than 100 µM; under `CC(=O)OC1COC(n2c(O)c(N=NC(N)=S)c3cc(Br)ccc32)C(OC(C)=O)C1OC(C)=O` (centres undefined), more than 100 µM; under `O=C(CSc1nnc(-c2ccc(N=Cc3ccc(Cl)cc3)cc2)o1)Nc1ccccc1[N+](=O)[O-]`, more than 100 µM.

In the next assay the test system is HOP-18 NSCLC. The assay can be described thus: growth of human tumour cells (NCI), 48 h.
Regarding `C[C@]12CCC(=O)C=C1CC[C@@H]1[C@@H]2CC[C@]2(C)C(=O)NC(=O)C[C@@H]12`, the TGI is more than 100 µM.
With `COc1cc2c(oc(=O)c3c4oc([Si](C)(C)C)cc4cc(OC)c23)c2cccc(OCc3ccccc3)c12`, the TGI turned out to be 63.8 µM.
The same measure, in the same setting: next, `O=C(c1cccs1)N(C(=S)N1CCN(c2ccccn2)CC1)c1ccccc1`: more than 100 µM; `CC(=O)OCC1=C(CCC#N)N2C(=O)C(NC(=O)Cc3cccs3)C2S(=O)C1` (centres undefined): more than 100 µM.
The same measure, in the same setting: under `COc1ccc2c3c1O[C@]1(C)C34CCN(C)C(C2)C42C=C[C@@]1(OC)c1c(O)ccc(O)c12` stands more than 100 µM; under `C[N+](C)(C)CC(=O)N/N=C/c1oc(-c2c(O)ccc3ccccc23)c(-c2c(O)ccc3ccccc23)c1[N+](=O)[O-]`, 62.8 µM.
Still for that read-out and setting: next, `COc1ccc(Nc2nnc(-c3nsc4ccccc34)s2)cc1`: 2.66 µM; `C/C(CC(=O)Nc1ccc([N+](=O)[O-])cc1)=N\NC(N)=O`: more than 100 µM; `CCCCOC(=O)C1C2CCC(O2)C1C(=O)OCCCC` (centres undefined): more than 100 µM.
`CC(=O)OC1COC(n2c(O)c(N=NC(N)=S)c3cc(Br)ccc32)C(OC(C)=O)C1OC(C)=O` (centres undefined) registered a TGI of more than 100 µM.
On the same count and under the same terms, next, `O=C(CSc1nnc(-c2ccc(N=Cc3ccc(Cl)cc3)cc2)o1)Nc1ccccc1[N+](=O)[O-]`: more than 100 µM.

For a further assay, the system named is KM20L2 colon. The assay is described as follows: growth of human tumour cells (NCI), 48 h.
Take `O=c1[nH]c2cc([N+](=O)[O-])ccc2nc1/C(=N/Nc1ccccc1)C(O)c1ccccc1Cl` (centres undefined): the TGI is more than 100 µM.
On the same count and under the same terms, next, `C=Cc1ccc(C)[n+](C[Si](C)(C)O[Si](C)(C)C)c1`: more than 100 µM; `C[C@]12CCC(=O)C=C1CC[C@@H]1[C@@H]2CC[C@]2(C)C(=O)NC(=O)C[C@@H]12`: more than 100 µM; `COc1cc2c(oc(=O)c3c4oc([Si](C)(C)C)cc4cc(OC)c23)c2cccc(OCc3ccccc3)c12`: more than 100 µM.
Same read-out and setting: under `O=C(c1cccs1)N(C(=S)N1CCN(c2ccccn2)CC1)c1ccccc1` stands more than 100 µM; under `CNS(=O)(=O)NN(C)S(=O)(=O)c1ccccc1`, more than 100 µM.
As to `CC(=O)OCC1=C(CCC#N)N2C(=O)C(NC(=O)Cc3cccs3)C2S(=O)C1` (centres undefined), the TGI was more than 100 µM.
The same measure, in the same setting: next, `CCCCNc1nc(C#N)c(N)s1`: more than 100 µM; `Cn1cc2ccccc2c1-c1nc(F)nc(F)n1`: more than 100 µM.
On to `COC(=O)N/N=C(\Cc1ccccc1)CN(C)C`, for which the TGI was more than 100 µM.
The same measure, in the same setting: under `CC1=NN(C(=O)c2ccccc2O)C(=O)/C1=C/c1ccco1` stands 81 µM.
On the same count and under the same terms, under `COc1ccc2c3c1O[C@]1(C)C34CCN(C)C(C2)C42C=C[C@@]1(OC)c1c(O)ccc(O)c12` stands more than 100 µM.
Take `C[N+](C)(C)CC(=O)N/N=C/c1oc(-c2c(O)ccc3ccccc23)c(-c2c(O)ccc3ccccc23)c1[N+](=O)[O-]`: the TGI came to 36 µM.
Still for that read-out and setting: next, `COc1ccc(Nc2nnc(-c3nsc4ccccc34)s2)cc1`: more than 100 µM; `C/C(CC(=O)Nc1ccc([N+](=O)[O-])cc1)=N\NC(N)=O`: more than 100 µM; `CCCCOC(=O)C1C2CCC(O2)C1C(=O)OCCCC` (centres undefined): more than 81.2 µM.
On the same count and under the same terms, next, `CC(=O)OC1COC(n2c(O)c(N=NC(N)=S)c3cc(Br)ccc32)C(OC(C)=O)C1OC(C)=O` (centres undefined): more than 100 µM; `O=C(CSc1nnc(-c2ccc(N=Cc3ccc(Cl)cc3)cc2)o1)Nc1ccccc1[N+](=O)[O-]`: more than 100 µM.

In a further assay the test system is SNB-78 CNS. The assay is described as follows: growth of human tumour cells (NCI), 48 h.
In the case of `O=c1[nH]c2cc([N+](=O)[O-])ccc2nc1/C(=N/Nc1ccccc1)C(O)c1ccccc1Cl` (centres undefined), the TGI was more than 100 µM.
`C=Cc1ccc(C)[n+](C[Si](C)(C)O[Si](C)(C)C)c1` registered a TGI of more than 100 µM.
Still for that read-out and setting: under `C[C@]12CCC(=O)C=C1CC[C@@H]1[C@@H]2CC[C@]2(C)C(=O)NC(=O)C[C@@H]12` stands more than 100 µM; under `COc1cc2c(oc(=O)c3c4oc([Si](C)(C)C)cc4cc(OC)c23)c2cccc(OCc3ccccc3)c12`, 91.6 µM.
The same measure, in the same setting: under `O=C(c1cccs1)N(C(=S)N1CCN(c2ccccn2)CC1)c1ccccc1` stands more than 100 µM; under `CC(=O)OCC1=C(CCC#N)N2C(=O)C(NC(=O)Cc3cccs3)C2S(=O)C1` (centres undefined), more than 100 µM.
Same read-out and setting: under `CCCCNc1nc(C#N)c(N)s1` stands more than 100 µM; under `Cn1cc2ccccc2c1-c1nc(F)nc(F)n1`, more than 100 µM.
In the case of `COC(=O)N/N=C(\Cc1ccccc1)CN(C)C`, the TGI was more than 100 µM.
Still for that read-out and setting: next, `CC1=NN(C(=O)c2ccccc2O)C(=O)/C1=C/c1ccco1`: more than 100 µM; `COc1ccc2c3c1O[C@]1(C)C34CCN(C)C(C2)C42C=C[C@@]1(OC)c1c(O)ccc(O)c12`: more than 100 µM; `COc1ccc(Nc2nnc(-c3nsc4ccccc34)s2)cc1`: more than 100 µM.
For the compound `C/C(CC(=O)Nc1ccc([N+](=O)[O-])cc1)=N\NC(N)=O`, the TGI was more than 100 µM.
The same measure, in the same setting: next, `CCCCOC(=O)C1C2CCC(O2)C1C(=O)OCCCC` (centres undefined): more than 100 µM; `CC(=O)OC1COC(n2c(O)c(N=NC(N)=S)c3cc(Br)ccc32)C(OC(C)=O)C1OC(C)=O` (centres undefined): more than 100 µM.
Take `O=C(CSc1nnc(-c2ccc(N=Cc3ccc(Cl)cc3)cc2)o1)Nc1ccccc1[N+](=O)[O-]`: the TGI was more than 100 µM.

The record behind these values is PubChem BioAssay (NCI).
